These results are taken from patent US6262046A, “Azetidinylpropylpiperidine derivatives, intermediates and use as tachykinin antagonists” (Pfizer Inc., priority 1997, dated 2001).

A word on the IC50: it is the concentration that gives 50% inhibition. Low readings indicate higher potency, high ones lower potency.

This experiment addresses T1, guinea pig cortex NK3 receptor (Cavia porcellus, UniProt P30098).
T1 construct: guinea pig cortex NK3 receptor; from tissue; host or cells: guinea pig (brain) cortex, prepared by the cited method of Guard et al., Br. J. Pharmacol. (1990), 99, 767
T1 sequence (P30098 1-440): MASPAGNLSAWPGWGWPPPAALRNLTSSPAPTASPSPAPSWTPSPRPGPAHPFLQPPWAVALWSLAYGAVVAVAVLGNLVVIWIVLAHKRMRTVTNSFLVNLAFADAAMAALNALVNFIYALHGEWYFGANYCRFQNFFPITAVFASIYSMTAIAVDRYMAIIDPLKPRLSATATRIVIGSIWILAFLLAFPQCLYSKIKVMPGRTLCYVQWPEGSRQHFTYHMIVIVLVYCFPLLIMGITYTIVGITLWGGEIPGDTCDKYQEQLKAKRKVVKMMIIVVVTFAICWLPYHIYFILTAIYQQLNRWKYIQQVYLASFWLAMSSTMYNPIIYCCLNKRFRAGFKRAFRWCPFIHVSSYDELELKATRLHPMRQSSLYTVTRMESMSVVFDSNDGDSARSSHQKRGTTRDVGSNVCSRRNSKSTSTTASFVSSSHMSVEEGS
Kind of experiment: in vitro affinity for the guinea pig cortex NK3 receptor (displacement of [^3 H] senktide). Format: binding. The settings on record: displacement of [^3 H] senktide at guinea pig cortex NK3 receptor. How it is done:
The affinity of the compounds of formula (I) and their salts for the NK3 receptor can be tested in vitro by testing their ability to displace [^3 H] senktide at the guinea pig cortex NK3 receptor. The receptors are prepared by the method described by S. Guard, et al, in Br.J.Pharmacol. (1990), 99, 767.
The data below illustrates the in vitro affinity of substances of the invention for the guinea pig cortex NK3 receptor, which assays were carried out according to the method mentioned earlier on page 15.

In turn, `CS(=O)(=O)N1CCN(C2CN(CCC[C@]3(c4ccc(Cl)c(Cl)c4)CCCN(C(=O)c4ccc(F)c(F)c4)C3)C2)CC1` [Example 17, (+)-3(R)-3-(3,4-Dichlorophenyl)-1-(3,4-difluorobenzoyl)-3-(3-[3-(4-methanesulphonylpiperazin-1-yl)azetidin-1-yl]propyl)piperidine] showed an IC50 of 3.98 nM.

`CS(=O)(=O)N(c1ccccc1)C1CN(CCC[C@]2(c3ccc(Cl)c(Cl)c3)CCCN(C(=O)c3ccccc3)C2)C1` [Example 13] had an IC50 of 11.2 nM.

Molecule `CS(=O)(=O)N1CCN(C2CN(CCC[C@]3(c4ccc(Cl)c(Cl)c4)CCCN(C(=O)c4ccccc4)C3)C2)CC1` [Example 3, (+)-3(R)-1-Benzoyl-3-(3,4-dichlorophenyl)-3-(3-[3-(4-methanesulphonylpiperazin-1-yl)azetidin-1-yl]propyl)piperidine] gave an IC50 of 1.58 nM.
